The values that follow come from patent US20040116420A1 (priority 2001, published 2004).

One series has as its system HSV2. Briefly: Antiviral activity 2, plaque formation in HEL cells. The conditions noted are these: Human alphaherpesvirus 2, 72 h, 3 days. It counts as cell-based, HSV-2. The protocol:
(§1) An Assay Method for Antiviral Activity 2
(§2) The HEL cells were sowed on a 48-well plate and then cultured overnight. The culture supernatant was removed, and 100 μl of 2% FBS-DMEM containing 40 Plaque-forming units of HSV-1, HSV-2, VZV, or CMV was added. A viral solution Was removed 1 hour later, and 500 μl of 2% FBS-DMEM containing 0.5% methylcellulose comprising 50, 25, 12.5, 6.3, 3.2, or 1.6 μM of the test compound was added. In this case, a substance to which 2% FBS-DMEM containing 0.5% methylcellulose not comprising any test compound had been added was designated as a control. In the case of HSV-1, HSV-2, or VZV, incubation was carried out in the presence of 5% CO2 at 37° C. for 3 days. In the case of CMV, incubation was carried out under the same conditions for 14 days. After they were immobilized on formalin and stained with bromophenol blue, the amount of plaque formed was counted, and the ratio of plaque formation of the drug-containing reaction system relative to the control was determined. The concentration of the drug with which the ratio of plaque formation reaches 50% was calculated and determined to be IC50. Concerning HSV-1, an aciclovir-resistant thymidine kinase variant and a DNA polymerase variant were examined in addition to a general aciclovir-sensitive strain.

The test system of the next series is Vero cells. Briefly: Cytotoxicity, Vero cells, Alamar Blue. It counts as cell-based. Conditions: 25 μM, 20 hours. Put shortly:
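Overnight-seeded Vero cells were exposed to 25 μM compound in 2% FBS-DMEM for 20 h at 37 °C, 5% CO2. Alamar Blue was then added for about 6 h. The absorbance ratio relative to compound-free control gave the living-cell ratio.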
In general terms: Resazurin is reduced to fluorescent resorufin, in cell work by metabolically active cells.

A short description of the next series: Human plasma stability. The class given is in vitro ADME. The protocol:
An Assay Method for Human Plasma Stability Human plasma was thawed, 200 μl each thereof was placed in each cell of a 96-well plate immediately thereafter, and 4 μl of solution of each test compound in 1 mM DMF was added thereto. A microplate reader for fluorescence absorption was used to assay changes in fluorescence, and half life was determined based on the changes.

Another series has as its system HSV-1. Briefly: Inhibition of virus multiplication through combined use, plaque formation in Vero cells. It counts as cell-based. Conditions: 3 days. The protocol:
Activity of Inhibiting Virus Multiplication Through Combined use
The Vero cells were sowed on a 48-well plate and then cultured overnight. The culture supernatant was removed, and 100 μl of 2% FBS-DMEM containing 40 Plaque-forming units of HSV-1 was added. A viral solution was removed 1 hour later, And 500 μl of 2% FBS-DMEM containing 0.5% methylcellulose comprising the test Compound was added. In this case, a substance to which 2% FBS-DMEM containing 0.5% methylcellulose not comprising any test compound had been added was designated as a control. They were incubated in the presence of 5% CO2 at 37° C. for 3 days. After they were immobilized on formalin and stained with bromophenol blue, the Amount of plaque formed was counted, and the ratio of plaque formation of the drug-containing reaction system relative to the control was determined. Examination was carried out using the Compound No.18 in combination with aciclovir, the Compound No. 18 in combination with penciclovir, and the Compound No.18 in combination with ganciclovir. In this examination, 25, 12.5, 6.3, 3.2, 1.6, or 0 μM of the Compound No. 18 was used, and 3.2, 1.6, 0.8, 0.4, 0.2, or 0 μM of aciclovir, penciclovir, or ganciclovir was used.

The next series has as its system VZV. Briefly: Antiviral activity 2, plaque formation in HEL cells. The class given is cell-based. The conditions noted are these: Human alphaherpesvirus 3, 72 h, 3 days. As to the method:
as §1, §2

For `Cc1c(NC(=O)OC(C)(C)C)ccc2nc(NC(C)(C)C(=O)N(C)CCc3ccccn3)oc(=O)c12` [Compound No.18, (5-methyl-2-{1-methyl-1-[methyl-(2-pyridin-2-yl-ethyl)-carbamoyl]-ethylamino}-4-oxo-4H-benzo[d][1,3]oxazin-6-yl)-carbamic Acid Tert-Butyl Ester], the IC50 (usually the concentration needed to halve the response being measured) in the series on HSV2 turned out to be 12.5 µM; with VZV, 25 µM. Also, in the series with Vero cells, the “Cell viability (% of control)” value is listed as 101.0%. In “Human plasma stability”, the half-life (in general, how long it takes for the measured level to halve) at 19.6 μM stood at 2.83 h. Besides, the “Inhibition of multiplication of HSV-1 through combined use” value in the series on HSV-1 (in combination with aciclovir), in the series with HSV-1 (in combination with ganciclovir) and in the series with HSV-1 (in combination with penciclovir) was “synergistically inhibited” each time.
